Laboratory results: ChEMBL document CHEMBL3507680, “University of Dundee, Gates Library screen for HepG2 cell viability”

Experiment: Human HepG2 cell viability assay in 384 well format
Assay type: toxicity, cell-based
Parameters: dose 125 nL, time 70.5 hour; concentration not given beside the values
Details: HepG2 cells, read-out: Inhibition

## CCc1nc(CC(=O)Nc2cnn(CC3CCCO3)c2)cs1 (centres undefined)
  cytotoxicity at 70.5 h: -7.79%

## c1ccc2oc(NC3CCCN(Cc4noc(C5CC5)n4)C3)nc2c1 (centres undefined)
  cytotoxicity at 70.5 h: -10.4%

## O=C(CCc1cccc(F)c1F)N1CCN(Cc2ccco2)CC1
  cytotoxicity at 70.5 h: -8.06%

## Cc1nn(C)c(C)c1NC(=O)CN1CCc2c(nc(C3CC3)n2C)C1
  cytotoxicity at 70.5 h: 12.4%

## CC(=O)NCCc1ccc(S(=O)(=O)N(CC(C)C)C(C)C)s1
  cytotoxicity at 70.5 h: 33%

## Cc1cnc(CNc2c(F)cccc2-n2cccn2)o1
  cytotoxicity at 70.5 h: 7.74%

## CCOc1ccc(CN(C)C(=O)NC(C)c2nncn2C)cc1 (centres undefined)
  cytotoxicity at 70.5 h: 8.83%

## CN(C(=O)Cn1nc(-c2ccc(F)cc2)oc1=O)C1CCS(=O)(=O)C1 (centres undefined)
  cytotoxicity at 70.5 h: 12.8%

## COC(=O)c1sccc1NC(=O)C1CCCN1C(=O)c1ccco1 (centres undefined)
  cytotoxicity at 70.5 h: 16.3%

## Cc1cc(NC(=O)NCCc2ccsc2)n(C)n1
  cytotoxicity at 70.5 h: -3.08%

## Cc1cc(CN(C)C(=O)NC(C)c2nncn2C)no1 (centres undefined)
  cytotoxicity at 70.5 h: -5.64%

## CC(=O)N1CCC(C(=O)NCCN2CCC(C)CC2)CC1
  cytotoxicity at 70.5 h: -2.37%

## CC(=O)N1CCC(C(=O)NCCN2CCCCC2)CC1
  cytotoxicity at 70.5 h: -0.67%

## CS(=O)(=O)NCCNC(=O)C1(c2cccc(Cl)c2)CC1
  cytotoxicity at 70.5 h: -4.01%

## NC(=O)CN1CCCN(C(=O)c2ccn(-c3cccc(F)c3)n2)CC1
  cytotoxicity at 70.5 h: -7.11%

## Cc1cc(C)n(CC(=O)N2CCC(c3nc(C)no3)CC2)n1
  cytotoxicity at 70.5 h: 2.07%

## CC(C)CNC(=O)Nc1ccc(CN2CCOC2=O)cc1
  cytotoxicity at 70.5 h: -13.4%

## CC(CNC(=O)Nc1ccc(N(C)C)nc1)Cn1cccn1 (centres undefined)
  cytotoxicity at 70.5 h: -7.16%

## COCCN(Cc1ccc(F)cc1Cl)C(=O)c1cccc[n+]1[O-]
  cytotoxicity at 70.5 h: -0.551%

## O=C(CCc1ccccc1)Nc1ncccc1OC(F)F
  cytotoxicity at 70.5 h: -0.101%

## Cc1ncsc1C(=O)N1CCCC(c2noc(C(C)C)n2)C1 (centres undefined)
  cytotoxicity at 70.5 h: 0.861%

## Cn1cnc(S(=O)(=O)N2CCN(Cc3ccco3)CC2)c1Cl
  cytotoxicity at 70.5 h: 2.09%

## Cc1ccc(CC(=O)N2CCOC(c3nc(C(C)(C)C)n[nH]3)C2)cn1 (centres undefined)
  cytotoxicity at 70.5 h: -4.13%

## CS(=O)(=O)CCNC(=O)C1(c2cccc(Cl)c2)CCCCC1
  cytotoxicity at 70.5 h: 17.7%

## COc1ccccc1OCC(=O)Nc1ncccc1Cl
  cytotoxicity at 70.5 h: -0.838%

## CCC(C)N(C)S(=O)(=O)c1ccc(CCNC(C)=O)s1 (centres undefined)
  cytotoxicity at 70.5 h: -7%

## CCc1nnc2n1CCN(Cc1csc(-c3ccsc3)n1)C2
  cytotoxicity at 70.5 h: -8.3%

## CN(C)CCN(Cc1cccc(C(F)(F)F)c1)C(=O)c1cc[nH]n1
  cytotoxicity at 70.5 h: -3.41%

## COCCN(Cc1ccc(F)cc1Cl)C(=O)c1ccncc1
  cytotoxicity at 70.5 h: -6.63%

## Cn1cc(-c2csc(CN3CCOCC3)n2)cn1
  cytotoxicity at 70.5 h: -1.08%

## O=C(NCCCn1cccn1)C1(c2ccc(Br)cc2)CC1
  cytotoxicity at 70.5 h: -2.34%

## O=C1NCCCCC1Sc1nnc(-c2cccnc2)n1C1CC1 (centres undefined)
  cytotoxicity at 70.5 h: -5.84%

## CC(NC(=O)C1=NN(C)C(=O)CC1)c1ccc(Cl)cc1Cl (centres undefined)
  cytotoxicity at 70.5 h: -3.67%

## Cc1nc(C(C)(C)NC(=O)Nc2ccccc2)no1
  cytotoxicity at 70.5 h: 1.88%

## CCOCCN1CCN(Cc2nc(C3CC3)no2)CC1CC (centres undefined)
  cytotoxicity at 70.5 h: 18.8%

## CC(C)(C)C(=O)NCCC(=O)NS(=O)(=O)c1ccc2c(c1)OCCO2
  cytotoxicity at 70.5 h: 0.749%

## COCC(NC(=O)c1cnn(C)c1)c1cccc(C(F)(F)F)c1 (centres undefined)
  cytotoxicity at 70.5 h: 2.36%

## Cn1nc2c(cc1=O)CN(CCc1nc3ccccc3c(=O)[nH]1)CC2
  cytotoxicity at 70.5 h: 1.45%

## O=C(Nc1cccnc1)N1CCC(n2ccc(C(F)(F)F)n2)CC1
  cytotoxicity at 70.5 h: -3.71%

## Cc1cccc(C(=O)N2CCN(S(C)(=O)=O)[C@@H](C)C2)c1C
  cytotoxicity at 70.5 h: -0.781%

## CCC1CN(Cc2ccccc2)CCN1Cc1nnc(C2CCC2)o1 (centres undefined)
  cytotoxicity at 70.5 h: -0.161%

## CSC(C)C(=O)NCCCc1cc(N)n(-c2ccccc2)n1 (centres undefined)
  cytotoxicity at 70.5 h: 1.73%

## Cc1n[nH]c(C2CN(C(=O)CCc3ccsc3)CCO2)n1 (centres undefined)
  cytotoxicity at 70.5 h: -5.2%

## CCc1ccccc1C(=O)N1CCN(S(C)(=O)=O)[C@@H](C)C1
  cytotoxicity at 70.5 h: -9.19%

## CC(C)OCCOCc1cccc(NC(=O)NCc2ccncc2)c1
  cytotoxicity at 70.5 h: 2.35%

## COc1cc(NC(=O)c2ccccc2F)c(C(=O)N(C)C)cc1OC
  cytotoxicity at 70.5 h: -10.5%

## NC(=O)c1ccc(N2CCCCC2)c(NC(=O)c2cc(Br)ccc2F)c1
  cytotoxicity at 70.5 h: -5.55%

## Cc1cc(CN(C)C(=O)C2CCCN(C(=O)c3cccs3)C2)no1 (centres undefined)
  cytotoxicity at 70.5 h: -10.3%

## N#Cc1ccc(OCCNc2cccc(C(=O)N3CCOCC3)c2)cc1
  cytotoxicity at 70.5 h: -13.9%

## Cc1cc(CNC(=O)NC(C)c2ccncc2)no1 (centres undefined)
  cytotoxicity at 70.5 h: -9.9%

## CCc1noc(C(C)N2CCC(NC(=O)c3ccc(C)s3)CC2)n1 (centres undefined)
  cytotoxicity at 70.5 h: -7.01%

## CC(C)(C)c1ccc(C2(C(=O)NCCCS(C)(=O)=O)CC2)cc1
  cytotoxicity at 70.5 h: -1.31%

## O=C(C1CCOC1)N1CCC2(CC1)CN(Cc1nccs1)CCO2 (centres undefined)
  cytotoxicity at 70.5 h: -2.99%

## Cc1noc(C)c1CN1CC[C@H]2C[C@H](c3nccs3)O[C@@H]2C1
  cytotoxicity at 70.5 h: -9.22%

## O=C(C1CCOC1)N1CCC2(CCN(Cc3nccs3)CC2)CC1 (centres undefined)
  cytotoxicity at 70.5 h: -15.1%

## COc1cc(N2CC[C@@H](O)[C@@H]2Cc2ccccc2)ncn1
  cytotoxicity at 70.5 h: -5.14%

## O=C(c1ccoc1)N1CC[C@@H]2O[C@@H](COCc3ccccn3)CC[C@@H]21
  cytotoxicity at 70.5 h: -3.1%

## CN1C(=O)CC(c2cnn(C)c2)C12CCN(C(=O)c1ccnnc1)CC2 (centres undefined)
  cytotoxicity at 70.5 h: -9.97%

## CN1CCN(Cc2ccc(F)cc2)Cc2cccnc21
  cytotoxicity at 70.5 h: -7.2%

## O=C(c1ccoc1)N1CC[C@@H]2O[C@@H](COCc3ccncc3)CC[C@@H]21
  cytotoxicity at 70.5 h: 10.2%

## c1cnc(N2CCCC3(CCN(Cc4ccsc4)C3)C2)nc1 (centres undefined)
  cytotoxicity at 70.5 h: 11.1%

## CC(C)Nc1ncnc2c1CCN(C(=O)CN(C)C)CC2
  cytotoxicity at 70.5 h: 36.6%

## Cc1nc(COC[C@H]2CCC[C@]23CN(CC2CC2)CCO3)cs1
  cytotoxicity at 70.5 h: 18.4%

## CN(C)C(=O)COCC1CN(Cc2ccsc2)Cc2nccn2C1 (centres undefined)
  cytotoxicity at 70.5 h: -7.22%

## CC1=N[C@@]2(CC[C@@H]3CN(C(=O)NCc4cccc(F)c4)C[C@@H]32)C(=O)N1
  cytotoxicity at 70.5 h: -3.91%

## O=C(Nc1ccccc1)N1CC(C(=O)N2CCCC2)C2(CCOCC2)C1 (centres undefined)
  cytotoxicity at 70.5 h: -10.8%

## Cc1cccc(NC(=O)N2CC(C(=O)NC(C)C)C3(CCOCC3)C2)c1 (centres undefined)
  cytotoxicity at 70.5 h: 9.15%

## CC1=N[C@@]2(CC[C@@H]3CN(C(=O)NCc4ccccc4C)C[C@@H]32)C(=O)N1
  cytotoxicity at 70.5 h: 7.73%

## CC1=N[C@@]2(CC[C@@H]3CN(C(=O)NCCc4ccccc4)C[C@@H]32)C(=O)N1
  cytotoxicity at 70.5 h: 7.76%

## CCC1=N[C@@]2(CC[C@@H]3CN(C(=O)NCC4CCCCC4)C[C@@H]32)C(=O)N1
  cytotoxicity at 70.5 h: -2.69%

## O=C(c1cscn1)N1CCC2(CC1)CN(c1ccccn1)CCO2
  cytotoxicity at 70.5 h: -9.14%

## CCOC[C@]12COC[C@H]1CN(Cc1cccc(OC)c1)C2
  cytotoxicity at 70.5 h: -5.95%

## CCn1ncc2c1C(COCC1CC1)CN(C(=O)c1ccncn1)C2 (centres undefined)
  cytotoxicity at 70.5 h: -10.2%

## Cc1noc([C@@H]2CCO[C@@H]3CCN(Cc4ccc(C)s4)C[C@@H]32)n1
  cytotoxicity at 70.5 h: -10.1%

## Cn1ncc2c1C(COCC1CC1)CN(C(=O)c1cscn1)C2 (centres undefined)
  cytotoxicity at 70.5 h: -7.06%

## COCC(=O)N1CCC2(CC1)COCCN2Cc1ccc(F)cc1
  cytotoxicity at 70.5 h: -11.6%

## O=C(N1CCOCC1)N1C[C@H]2CN(Cc3nccs3)C[C@H]2C1
  cytotoxicity at 70.5 h: 3.41%

## CCOCC1CN(C(=O)c2ccnnc2)Cc2cnn(CC)c21 (centres undefined)
  cytotoxicity at 70.5 h: -6.52%

## CNC(=O)CN1CCC12CCN(C(=O)Cc1ccccc1)C2 (centres undefined)
  cytotoxicity at 70.5 h: -17.2%

## O=C(c1ccco1)N1CC[C@@H]2O[C@@H](COCCN3CCCC3)CC[C@@H]21
  cytotoxicity at 70.5 h: -3.08%

## Cc1nc(COC[C@H]2CCC[C@@]23CN(C(C)C)CCO3)cs1
  cytotoxicity at 70.5 h: -6.88%

## O=C(c1ccoc1)N1CC[C@@H]2O[C@@H](COCCN3CCCC3)CC[C@@H]21
  cytotoxicity at 70.5 h: -12.6%

## O=C(c1ccco1)N1CC[C@@H]2O[C@H](COCCN3CCCC3)CC[C@@H]21
  cytotoxicity at 70.5 h: 10.5%

## c1cnc(N2CCC3(CCCN(Cc4ccncc4)C3)CC2)nc1
  cytotoxicity at 70.5 h: 18.3%

## Cc1ccc2c(n1)N(CC(C)C)CCN(S(C)(=O)=O)C2
  cytotoxicity at 70.5 h: -6.3%

## Cc1occc1C(=O)N1CCC2(CC1)CN(c1ccccn1)CCO2
  cytotoxicity at 70.5 h: -5.88%

## Cc1noc(C)c1CN1CC[C@H]2OCC[C@@]2(C(=O)NC2CCCC2)C1
  cytotoxicity at 70.5 h: -9.16%

## O=S(=O)(NCC1COCc2c(-c3ccncc3)nnn2C1)C1CC1 (centres undefined)
  cytotoxicity at 70.5 h: -3.99%

## Cc1ccoc1C(=O)N1CCn2nnc(COc3cccnc3)c2C1
  cytotoxicity at 70.5 h: -11.5%

## COc1cc(N2C[C@H]3CCC[C@@H](CN(C)C)[C@H]3C2)ncn1
  cytotoxicity at 70.5 h: -10.1%

## c1cc(CN2C[C@@H]3OCCN(CC4CCCO4)[C@@H]3C2)cs1 (some centres undefined)
  cytotoxicity at 70.5 h: -7.25%

## COc1cccc(CN2C[C@@H]3COC[C@]3(COc3cccnc3)C2)c1
  cytotoxicity at 70.5 h: 3.66%

## COc1cccc(CN2C[C@@H]3COC[C@]3(CN3CCOCC3)C2)c1
  cytotoxicity at 70.5 h: 6.49%

## O=C1N(c2cncnc2)CCC12CCCN(Cc1cccnc1)C2 (centres undefined)
  cytotoxicity at 70.5 h: -3.72%

## c1cc(COC[C@]23COC[C@H]2CN(CC2CCC2)C3)ccn1
  cytotoxicity at 70.5 h: -11.8%

## CNC(=O)CN1CCOCC12CCN(CCc1ccccc1)CC2
  cytotoxicity at 70.5 h: -13.5%

## COc1cc(N2C[C@@H]3COC[C@]3(COCc3ccccn3)C2)ncn1
  cytotoxicity at 70.5 h: -4.79%

## Fc1cnc(N2CCCC3(CCN(Cc4cccs4)C3)C2)nc1 (centres undefined)
  cytotoxicity at 70.5 h: -2.04%

## Fc1ccc(CN2CCC3(CC2)CCN(c2ncccn2)CC3)cc1
  cytotoxicity at 70.5 h: 10.9%

## Cc1cccc(CN2Cc3nccn3CC(CN3CCOCC3)C2)c1 (centres undefined)
  cytotoxicity at 70.5 h: -9.03%

## c1nc(CNC2CCOCC2)c2n1CCCN(CC1CC1)C2
  cytotoxicity at 70.5 h: -3.82%

## CCS(=O)(=O)N1CCN(Cc2ccncc2)c2nc(C)ccc2C1
  cytotoxicity at 70.5 h: -5.64%

## O=C(c1cccnc1)N1CCn2nnc(COc3ccccn3)c2C1
  cytotoxicity at 70.5 h: -14.2%

## CCS(=O)(=O)N1CCN(Cc2cccnc2)c2nc(C)ccc2C1
  cytotoxicity at 70.5 h: 5.16%

## c1cncc(OCC2CN(Cc3ccsc3)Cc3nccn3C2)c1 (centres undefined)
  cytotoxicity at 70.5 h: 6.26%

## CS(=O)(=O)NCc1ncn2c1CN(Cc1cccs1)CCC2
  cytotoxicity at 70.5 h: -7.97%

## c1ccc(CN2C[C@@H]3COC[C@]3(COCc3ccncc3)C2)nc1
  cytotoxicity at 70.5 h: -2.45%

## COc1ccc(CN2C[C@@H]3OCCN(CCN(C)C)[C@@H]3C2)cc1
  cytotoxicity at 70.5 h: -3.2%

## CCc1ccc(CN2Cc3nccn3CC(CN3CCOCC3)C2)o1 (centres undefined)
  cytotoxicity at 70.5 h: -5.92%
